Source: US12227802B2, “Nucleotides with a 3′ AOM blocking group” (Illumina Cambridge Limited, priority 2018, dated 2025)

Assays:
Assay type in all cases: physicochemical
[1] = Deblocking test of 3′ blocked T nucleotides in solution (Pd/THP for AOM, THP for azidomethyl; HPLC); settings: 0.1 mM nucleotide, Pd/THP=1/5, 1 mM THP, ethanolamine pH 9.8, room temperature
Description: In this example, deblocking tests for 5′-mP 3′-AOM T and the standard 5′-mP 3′-O-azidomethyl T nucleotide were performed individually in a solution unique to each blocking group. Conditions were formulated to mimic Illumina's standard deblock reagent as closely as possible, and follow the same methodology. Concentrations of active deblock reagent, buffer, and nucleoside are kept the same across all tests, but the identity of each component was unique. In this way, the observed difference in rate between the individual deblocking chemistries cannot due to the differences in concentration of formulation.
Nucleotide: 5′-monophosphate 3′-O-azidomethyl T. Active Deblock reagent: tris(hydroxypropyl)phosphine (THP) (1M in 18 mΩ water). (Optional) Additive: Sodium ascorbate (0.1 mM in 18 mΩ water) final conc.=1 mM. Buffer: Ethanolamine pH 9.8 (2M in 18 mΩ water). Quenching reagent: H2O2.
Nucleotide: 5′-monophosphate […]. A stock solution of 3′-AOM T was diluted to 0.1 mM in a 100 mM ethanolamine buffer (pH 9.8), in a glass vial under nitrogen. A stock solution of sodium ascorbate additive was added to a final concentration of 0.1 mM and the solution stirred 5 minutes. To commence the assay, the deblock reagents (Pd/THP=⅕; sodium ascorbate; ethanolamine) were added, to a final concentration of 1 mM THP, to the stirring solution at room temperature. […]

[2] = 3′-O-thiocarbamate blocking groups stability testing in incorporation buffer at 65° C. (HPLC); settings: 9-day testing period (FIG. 6)
Description: The stability tests for 5′-mP 3′-DMTC T nucleotide was performed side by side in an incorporation buffer solution with standard 5′-mP 3′-O-azidomethyl T nucleotide.
For both 5′-mP 3′-DMTC T and 5′-mP 3′-O-azidomethyl T, the final solution volume was 1 mL and the final concentrations of the corresponding nucleotides were both 0.1 mM. Other components of the aqueous buffer solution include ethanolamine (EA), ethanolamine HCl, NaCl (100 mM), and EDTA (2.5 mM). The buffer solution has the following concentration: 0.5 M EA Buffer, 0.5 M NaCl, 0.01 M EDTA.
200 μL of 10× Buffer solution was added to a 1.7 mL polypropylene snap lock microtube and diluted with the correct volume of 18 mΩ water. The corresponding nucleoside was then added, the vial was sealed and mixed via inversion, gentle stirring or pumping with a micropipette. A 40 μL aliquot was taken and analyzed by HPLC to act as a starting (or t=0) value. The vials are then placed in a pre-heated heating mantle set to 65° C., covered with a thick layer of aluminum foil and left to heat for one month. 40 μL aliquots was taken periodically (weck 1: once daily. Wecks 2-4: 1 every 2 days) and analyzed by HPLC to determine the percentage starting material and the percentage deblocked (3′-OH) nucleotide in the samples. HPLC analysis was performed by measuring the area of the stating nucleotide peak and the 3′OH peak. […]

[3] = 3′-O-thiocarbamate (DMTC) deblocking test in solution (HPLC)
Description: In this example, deblocking or deblock tests for 5′-mP 3′-DMTC T and the standard 5′-mP 3′-O-azidomethyl T nucleotide were performed individually in a solution unique to each blocking group. Conditions were formulated to mimic Illumina's standard deblock reagent as closely as possible, and follow the same methodology. Concentrations of active deblock reagent, buffer, and nucleoside are kept the same across all tests, but the identity of each component was unique. In this way, the observed difference in rate between the individual deblocking chemistries cannot due to the differences in concentration of formulation.
Each reaction component was formulated individually as a concentrated stock in 18 mΩ water, stored appropriately, and aliquots combined in a specific order given below. Reaction was commenced by addition of the preformulated deblock reagent. […]
In a 3 mL glass vial was added the preformulated buffer solution followed by preformulated additive solution. […] A 40 μL aliquot was then taken, quenching reagent added and analyzed by HPLC as a reference (or t=0 min) peak. […] At specified time points, 40 μL aliquots were taken and quenched immediately with an appropriate quenching reagent, then analyzed by HPLC to determine the amount of deblocked nucleotide that has occurred at these specified time points. […]

stability compared to nucleotide with standard 3′-O-azidomethyl group [2]	Structure (SMILES)	speed improvement in deblocking rate in solution compared to standard azidomethyl blocking group [1] [fold]	deblocking with NaIO4 ([3]; 1 mM NaIO4, pH 6.75 phosphate buffer (FIG. 7))	deblocking rate with Oxone compared to standard azidomethyl blocking group ([3]; 1 mM Oxone, pH 8.65 phosphate buffer (FIG. 7))
	C=CCOCOC1C[C@H](n2cc(C)c(=O)[nH]c2=O)O[C@@H]1COP(=O)(O)O (stereo partly shown) [AOM]	10		
improved stability	Cc1cn([C@H]2CC(OC(=S)N(C)C)[C@@H](COP(=O)(O)O)O2)c(=O)[nH]c1=O (stereo partly shown) [DMTC]		not efficient	superior deblocking rate
